The CATMoS acute toxicity set (Mansouri et al. 2021)

Experiment: GHS categories as the set defines them, by LD50: 1 up to 5, 2 up to 50, 3 up to 300, 4 up to 2000, 5 above 2000 mg/kg
Conditions: rat; in vivo; po

| SMILES | GHS category |
| --- | --- |
| CCC=CCC=O | 5 |
| CCCCCCCC/C=C\CCCCCCCC(=O)OCC | 5 |
| CCCCCC1C(=O)CCC1CC(C)=O (configuration not stated) | 5 |
| CC(=O)N(C)C(=O)Oc1cccc2c1OC(C)(C(C)(C)C)O2 (configuration not stated) | 4 |
| O=C1Nc2ccccc2OC1(c1ccc(O)cc1)c1ccc(O)cc1 | 5 |
| CCOC(=O)C(=O)Nc1cccc(OC)c1C(N)=O | 5 |
| N#CC1CCCC2OCC(c3ccccc3)N12 (configuration not stated) | 5 |
| CCC(O)=C1C(=O)CC(C(=O)O)CC1=O (configuration not stated) | 5 |
| CCCC(C)c1ccc(OCC(=O)Cl)c(C(C)CCC)c1 (configuration not stated) | 5 |
| COc1ccc(COC(=O)Cc2ccccc2)cc1 | 5 |
| Cc1cc2nc3c(=O)[nH]c(=O)nc-3n(C[C@H](O)[C@H](O)[C@H](O)CO)c2cc1C | 5 |
| CCCc1c(Cc2ccc(-c3oc(Br)cc3-c3nn[nH]n3)cc2)c(=O)nc2nc[nH]n12 | 4 |
| CCCOC(=O)c1sc(C(=O)OCCC)c(O)c1O | 4 |
| Nc1ccc(C(=O)c2ccccc2)cc1O | 5 |
| CC(=O)CC(=O)O[C@H]1C[C@@H](C)CC[C@@H]1C(C)C | 5 |
| CCN1CCN(C(=O)N[C@@H](C(=O)N[C@@H]2C(=O)N3[C@@H]2SC(C)(C)[C@H]3C(=O)O)c2ccccc2)C(=O)C1=O | 5 |
| FC(F)(Cl)Cl | 4 |
| CCCCC(CC)COC(=O)CCCCCCCCC(=O)OCC(CC)CCCC (configuration not stated) | 5 |
| Cc1c(C2=C(O)CC(C)(C)CC2=O)c2c(n1-c1ccccc1)CC(C)(C)CC2=O | 5 |
| COC(=O)c1ccc(C#N)cc1[N+](=O)[O-] | 5 |
| CC(=C(CCS(C)=O)SSC(CCS(C)=O)=C(C)N(C=O)Cc1cnc(C)nc1N)N(C=O)Cc1cnc(C)nc1N (configuration not stated) | 4 |
| CC(C)COP(O)(=S)OCC(C)C | 5 |
| C=C1C2CCC(C2)C1(C)C (configuration not stated) | 5 |
| CCCCOC(=O)C(=O)[C@H]1[C@H](C)C[C@H]2[C@@H]3C[C@H](F)C4=CC(=O)C=C[C@]4(C)[C@H]3[C@@H](O)C[C@@]21C | 5 |

| SMILES | GHS category |
| --- | --- |
| CC(C)CCCCCCCCCCCCCCC(=O)O | 5 |
| CC(C)(C)OOC(C)(C)c1cccc(C(C)(C)OOC(C)(C)C)c1 | 5 |
| C[C@@H]1CN([C@H]2CC[C@](C#N)(c3ccc(F)cc3)CC2)CC[C@]1(C(=O)O)c1ccccc1 | 5 |
| CCOc1nc(F)cc2nc(S(=O)(=O)Nc3c(Cl)cccc3C(=O)OC)nn12 | 5 |
| CCCCCCCc1ccc(O)cc1 | 5 |
| CCOC(=O)C(=O)Nc1cc(OC)nc(C)n1 | 4 |
| CNC(C)C(O)c1ccc(NS(C)(=O)=O)cc1 (configuration not stated) | 5 |
| CCOC(=O)C(=O)Nc1cc(OCCOC)nc(C)n1 | 4 |
| CCC1(c2ccc(O)cc2)NC(=O)NC1=O (configuration not stated) | 5 |
| CC(=O)C(N=Nc1ccc(C(=O)Nc2ccc(C(N)=O)cc2)cc1)C(=O)Nc1ccc2[nH]c(=O)[nH]c2c1 (configuration not stated) | 5 |
| CCNC(=O)CCCSCc1nnnn1CC | 4 |
| O=C(NC(=O)c1c(F)cccc1F)Nc1ccc(Oc2ccc(C(F)(F)F)cc2Cl)cc1F | 5 |
| Cc1nnc(SCCCSc2nnnn2C)o1 | 4 |
| O=Cc1cc([N+](=O)[O-])ccc1Cl | 5 |
| O=C1c2ccc(Br)cc2C(=O)C1(Br)c1ccc2ccccc2c1 (configuration not stated) | 5 |
| CCCN(C=Nc1cccc(=O)[nH]1)CCC | 5 |
| CCOC(=O)C(Br)CC (configuration not stated) | 4 |
| COC(=O)c1nc(Cl)c(Cl)nc1N | 5 |
| CCN1CCN(C(=O)N[C@@H](C(=O)N[C@@H]2C(=O)N3C(C(=O)O)=C(CSc4nnnn4C)CS[C@H]23)c2ccc(O)cc2)C(=O)C1=O | 5 |
| CC1=C(/C=C/C(C)=C/C=C/C(C)=C\C(=O)O)C(C)(C)CCC1 | 5 |
| CCN(CC)CCC1=NC(=C2C=CC(=O)C=C2)NO1 | 5 |
| C/C1=C\[C@@H](C)C/C=C/[C@H]2[C@@H]3O[C@]3(C)[C@@H](C)[C@H]3[C@H](Cc4c[nH]c5ccccc45)NC(=O)[C@]32C(=O)/C=C/C(=O)[C@@H]1O | 4 |
| c1ccc2sc(SN3CCOCC3)nc2c1 | 5 |
| O=C(O)Cc1ccc(Cl)cc1Cl | 5 |

| SMILES | GHS category |
| --- | --- |
| C[C@@H]1C[C@H]2[C@@H]3CCC4=CC(=O)C=C[C@]4(C)[C@@]3(F)[C@@H](O)C[C@]2(C)[C@@]1(O)C(=O)COS(=O)(=O)O | 5 |
| COc1ccc(C2NC(=O)CCS2)cc1 (configuration not stated) | 5 |
| COc1cc([N+](=O)[O-])ccc1N=NC(C(C)=O)C(=O)Nc1cc(Cl)ccc1OC (configuration not stated) | 5 |
| N#CC(CCc1ccc(Cl)cc1)(Cn1cncn1)c1ccccc1 (configuration not stated) | 5 |
| c1ccc(OCC2COC(Cn3cncn3)(c3cc4ccccc4o3)O2)cc1 (configuration not stated) | 4 |
| CCCCCCCCOC(=O)CCc1cc(C(C)(C)C)c(O)c(C(C)(C)C)c1 | 5 |
| CC(C)C1(C)N=C(c2ncccc2C(=O)O)NC1=O (configuration not stated) | 5 |
| CCCC1CCC(=O)O1 (configuration not stated) | 5 |
| COc1ccccc1OC(=O)Cc1ccc(C(=O)c2ccc(C)cc2)n1C | 4 |
| CCOC(=O)C(F)(F)F | 5 |
| c1ccc(C2c3ccccc3CCN2c2ccccc2)cc1 (configuration not stated) | 4 |
| CC(C)CCCCCCCCCCOC(=O)CCCCC(=O)OCCCCCCCCCCC(C)C | 5 |
| CC(C)=CCC/C(C)=C/C(=O)OCCC(C)C | 5 |
| O=S(=O)(O)CCN1CCN(CCO)CC1 | 5 |
| CCOP(=S)(OCC)ON=C(C#N)c1ccccc1Cl | 5 |
| CC(=O)OCC(=O)[C@@]12OC3(CCCC3)O[C@@H]1C[C@H]1[C@@H]3CCC4=CC(=O)C=C[C@]4(C)[C@@]3(F)[C@@H](O)C[C@@]12C | 5 |
| Clc1cc(Cl)c2oc(C3(Cn4ccnc4)OCCCO3)cc2c1 | 4 |
| CC(=O)CCC=C(C)CCC=C(C)C | 5 |
| Oc1ccc(-c2ccccc2)cc1 | 5 |
| CCC(C)C(=O)OCCc1ccccc1 (configuration not stated) | 5 |
| COCCOc1nc(Nc2ccc(C=Cc3ccc(Nc4nc(OCCOC)nc(N(C)CCS(=O)(=O)O)n4)cc3S(=O)(=O)O)c(S(=O)(=O)O)c2)nc(N(C)CCS(=O)(=O)O)n1 | 5 |
| CN1C[C@H](c2ccnn2C)CC2c3cccc4[nH]cc(c34)C[C@H]21 (some centres not stated) | 4 |
| CCOC(=O)C(=O)Nc1cc(SCCOC)nc(C)n1 | 4 |
| CCCCCCCCOCCCCCCCC | 5 |

| SMILES | GHS category |
| --- | --- |
| O=C1CCC(N2C(=O)c3ccccc3C2=O)C(=O)N1CN1CCOCC1 (configuration not stated) | 5 |
| CCCCCCCCCl | 5 |
| CCCCCC(=O)OC | 5 |
| CCS(=O)(=O)CCC(=O)NNC(=O)N1Cc2ccccc2Oc2ccc(Cl)cc21 | 5 |
| Cc1ccc(OC(N)=O)c(C(=O)Oc2ccccc2)c1 | 5 |
| CC(=O)S[C@@H]1CC2=CC(=O)CC[C@]2(C)[C@H]2CC[C@@]3(C)[C@@H](CC[C@@]34CCC(=O)O4)[C@H]12 | 4 |
| CC(C)C1=CC2=CC[C@H]3[C@](C)(CO)CCC[C@]3(C)[C@H]2CC1 | 5 |
| CC(C)CCOCCc1ccccc1 | 5 |
| CC(C)(c1ccc(OCCO)cc1)c1ccc(OCCO)cc1 | 5 |
| CCCCCCC(O)CO (configuration not stated) | 5 |
| CC1CC(OC(=O)C(C)Oc2ccccc2Cl)CC(C)(C)C1 (configuration not stated) | 5 |
| CCCc1c(Cc2ccc(-c3ccccc3-c3nn[nH]n3)cc2)c(=O)nc2nc(N)[nH]n12 | 4 |
| CC(=O)C(=O)CC(C)C | 5 |
| CCO[Si](CCCOCC1CO1)(OCC)OCC (configuration not stated) | 5 |
| Clc1ccc(Cl)nn1 | 3 |
| OCC(O)COc1nn(Cc2ccccc2)c2ccccc12 (configuration not stated) | 5 |
| CN(CCNCc1cc(C(C)(C)C)cc(Br)c1O)CCNC(=O)c1nc(Cl)c(N)nc1N | 4 |
| Cc1cc2cc3c(C)cc(=O)oc3c(C)c2o1 | 5 |
| CCC(=O)C(C)CO (configuration not stated) | 5 |
| CCCN(CCC)c1c([N+](=O)[O-])cc(S(N)(=O)=O)cc1[N+](=O)[O-] | 5 |
| CCN(C)c1cc(=O)c2c(ccc3ccccc32)o1 | 4 |
| O=C(Nc1cc(Cl)c(NC(=O)c2cc3ccccc3c(N=Nc3cc(C(F)(F)F)ccc3Cl)c2O)cc1Cl)c1cc2ccccc2c(N=Nc2cc(C(F)(F)F)ccc2Cl)c1O | 5 |
| CCCCCCCCCCCCCCC | 5 |
| CC(C)(C)OP(=O)(O)OC(C)(C)C | 5 |

| SMILES | GHS category |
| --- | --- |
| N#CCC(=O)OCC(COC(=O)CC#N)(COC(=O)CC#N)COC(=O)CC#N | 5 |
| COc1ccc(C(=O)OC2=C(C(=O)Nc3ccccn3)N(C)S(=O)(=O)c3ccsc32)cc1 | 2 |
| O=C(O)c1[nH]n(-c2ccc(S(=O)(=O)O)cc2)c(=O)c1/N=N/c1ccc(S(=O)(=O)O)cc1 | 5 |
| COC(=O)CBr | 3 |
| CCCCCCCCCNP1(=S)OCc2cc([N+](=O)[O-])ccc2O1 (configuration not stated) | 3 |
| OCCn1c(C=Cc2nc3ccccc3[nH]2)nc2ccccc21 | 5 |
| C=C(C)C(=O)OCCOCCOCCOCC | 5 |
| CC(C)C(=O)OOC(C)(C)C | 5 |
| COc1cc2c(cc1OC)-c1c(C)c3ccc(OC)c(OC)c3c[n+]1CC2 | 4 |
| O=C(CCCCC(=O)N(CCO)CCO)N(CCO)CCO | 5 |
| CCC1COC(Cn2cncn2)(c2cc3ccccc3o2)O1 (configuration not stated) | 4 |
| CCCCOC(=O)c1ccc(-n2nc(OCCCN(C)C)c3ccccc32)cc1 | 4 |
| CC(=O)CSc1nnnn1C | 4 |
| CCCc1nc2ncnn2c(N(CC)CC)c1Cc1ccc(-c2ccccc2-c2nn[nH]n2)cc1 | 4 |
| C=CCCCCCCCCC=O | 5 |
| CS(=O)(=O)OC[C@@H](OS(C)(=O)=O)[C@@H](O)[C@H](O)[C@@H](COS(C)(=O)=O)OS(C)(=O)=O | 5 |
| C=CC(=O)OCC(CC)(COCC(CC)(COC(=O)C=C)COC(=O)C=C)COC(=O)C=C | 5 |
| CC(=O)O[C@]1(C(C)=O)CC[C@H]2[C@@H]3C=C(C)C4=CC(=O)CC[C@@H]4[C@H]3CC[C@@]21C | 5 |
| CC(C)=CCC/C(C)=C/COC=O | 5 |
| CCC1(C)COC(Cn2cncn2)(c2cc3ccccc3o2)OC1 (configuration not stated) | 4 |
| CCC(C)O[Si](OC(C)CC)(OC(C)CC)OC(C)CC (configuration not stated) | 5 |
